Data set [1] has as its system Transgenic mice over-expressing human SCCE. Put plainly: Histological studies of skin morphology in SCCE transgenic mice after topical treatment. The format is in vivo. The settings on record: for side effects (unusually thin epidermis): day 8 histology; for Unusually thin epidermis / Morphology changes: topical once daily 8 days, day 8; for Unusually thin epidermis: mice affected/mice in group; for Morphology changes: mice with changes/mice in group. The text has this:
(§1) Transgenic mice over-expressing human SCCE under the control of the SV40 early promoter were generated as described in WO 02/062135. These transgenic mice show a pattern of SCCE-expression which is similar to the expression pattern seen in psoriasis lesions and chronic lesions in atopic dermatitis in humans, i.e. expression in suprabasal cells which increases with distance from the basal layer. The transgenic mice develop pathological skin changes with marked hyperkeratosis, increased epidermal thickness, and dermal inflammation. From the age of 8-10 weeks transgenic mice show signs of itch, the frequency of which increase with age. The increase marked changes in skin morphology including increased epidermal thickness, also causes higher transepidermal water loss.
Transgenic mice, 6-9 month of age, were treated daily with compound I-3 (2-(2-Iodo-phenyl)-6,7-dimethoxy-benzo[d][1,3]oxazin-4-one) which was identified as an SCCE inhibitor as described above during 8 days. The substance was initially dissolved in DMSO and formulated in vehicle containing 45% isopropanol, 6% 1,2-propanediol with a 1.2% final concentration of DMSO. Two different concentrations of inhibitor, 300 μM and 30 μM, were formulated.
The study contained four different treatments with 3-4 mice in each group. Each mouse used in the study had phenotypic changes typical of SCCE transgenic animals.
• high dose (300 μM) of compound I-3 • low dose (30 μM) of compound I-3 • positive control (a pharmaceutical formulation (Betnovat, Glaxo SmithKline AB) containing betametasone) • negative control, vehicle (a pharmaceutical formulation lacking active substance)
The formulations (500 μl/mouse) were applied once daily (late afternoon) on the area around the ears and on the back of the mice. Mice were treated during 8 days and measurements of transepidermal water loss (TEWL) were performed during the treatment period.
Histological studies of skin morphology were performed on sacrificed mice after the last day of treatment (day 8). Tissue samples were fixed in 4% phosphate-buffered formaldehyde for 24 h in room temperature (RT) and then embedded in paraffin using standard histological procedure. To analyze tissue morphology, embedded tissue was sectioned (5 μm) and then stained with haematoxylin and Eosin (H/E) using standard histological protocols.

Data set [2] has the same test system. The experiment in a line: Transepidermal water loss (TEWL) in SCCE transgenic mice after topical treatment. The format is in vivo. The settings on record: both concentrations (30 μM and 300 μM), topical once daily, 8 days, relative to positive control Betamethasone.
Text: as §1
Transgenic mice, 6-9 month of age, were treated daily with compound I-3 (2-(2-Iodo-phenyl)-6,7-dimethoxy-benzo[d][1,3]oxazin-4-one) which was identified as an SCCE inhibitor as described above during 8 days. The substance was initially dissolved in DMSO and formulated in vehicle containing 45% isopropanol, 6% 1,2-propanediol with a 1.2% final concentration of DMSO. […]
TEWL was measured on the back of mice with an Evaporimeter from DermaLAB (Cortex Technology ApS, Hadsund, Denmark) according to manufactures protocol. […] TEWL was measured on in the morning at day 0, 3, 5 and 8 for 1 min repeated twice.

The target in data set [3] is T1, Recombinant active human SCCE (Homo sapiens, UniProt P49862).
T1 construct: made in house; host or cells: murine C127 cells transfected with a BPV vector (murine MT promoter)
T1 sequence (P49862 30-253): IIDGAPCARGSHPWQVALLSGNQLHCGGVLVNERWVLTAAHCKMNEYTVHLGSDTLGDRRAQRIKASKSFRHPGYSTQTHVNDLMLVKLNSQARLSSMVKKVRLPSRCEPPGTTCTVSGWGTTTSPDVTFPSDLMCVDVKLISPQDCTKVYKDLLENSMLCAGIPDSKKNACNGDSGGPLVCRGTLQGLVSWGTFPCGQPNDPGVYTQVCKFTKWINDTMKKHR
Put plainly: SCCE Inhibitor Test (chromogenic substrate S-2586, absorbance at 405 nm). The format is biochemical. To be noted: for IC50: 10 min preincubation, 1 mM S-2586, 60 min, 37° C, pH 7.2; for remaining activity at 1 µM: 1 μM compound; for remaining activity at 5 µM: 5 μM compound. Here is the method: Recombinant active human SCCE was produced essentially as described in WO 95/00651. The cDNA encoding human SCCE was introduced into a BPV vector under the control of the murine MT promoter and expressed in transfected C127 cells. The produced SCCE was purified and activated using immobilized bovine trypsin.
SCCE activity was determined using the chromogenic substrate S-2586 (MeO-Suc-Arg-Pro-Tyr-pNA) (Chromogenix, Mölndal, Sweden) by measurement of the change in absorbance at 405 nm essentially as described in WO 95/00651. Inhibitors were dissolved in DMSO and added to the reaction mixture (10 mM sodium phosphate, pH 7.2, 0.5 M NaCl, 2.5 μg/ml SCCE) at appropriate concentrations followed by incubation for 10 min before the start of the enzymatic reaction by subsequent addition of the substrate S-2586 to a final concentration of 1 mM. The change in absorbance at 405 nm after 60 min was recorded and used as a measure of SCCE activity. The assay temperature was 37° C. […] The IC50 values were used to identify compounds as SCCE inhibitors of the invention.

The mark [4] stands for this setting: positive control formulation (Betnovat).

In general, IC50 refers to the concentration that gives 50% inhibition. As usually defined, the remaining activity is the signal under treatment as a percentage of the control signal.

A value given as a limit tells only on which side of the number the result lay.

Consider `C[C@H]1C[C@H]2[C@@H]3CCC4=CC(=O)C=C[C@]4(C)[C@@]3(F)[C@@H](O)C[C@]2(C)[C@@]1(O)C(=O)CO` [Betamethasone, reference compound], for which the “side effects (unusually thin epidermis)” value in data set [1] is “side effects (unusually thin epidermis) found”. For the same compound, in data set [1] (setting [4]), the Unusually thin epidermis is reported as 3/3 and the Morphology changes is reported as 0/3.

In the case of `COc1cc2nc(-c3ccccc3I)oc(=O)c2cc1OC` [Compound I-3, 2-(2-Iodo-phenyl)-6,7-dimethoxy-benzo[d][1,3]oxazin-4-one], the “improvement of TEWL” value in data set [2] was “improves TEWL with approximately half the efficiency of the positive control”. The IC50 in data set [3] stood at 100 nM. Besides, the remaining activity at 10 µM in data set [3] (1 h, 10 μM compound) came out at 0%. In data set [1] (30 μM), the Unusually thin epidermis is 0/4 and the Morphology changes is reported as 1/4. Besides, in data set [1] (300 μM), the Unusually thin epidermis is recorded as 0/4 and the Morphology changes is 1/4. Moreover, in data set [1] (both concentrations (30 μM and 300 μM), compared with vehicle group), the “effects on skin morphology” value is recorded as “positive effects on skin morphology to a higher degree then vehicle group”. In addition, the “side effects (unusually thin epidermis)” value in data set [1] is given as “without the side effects”.

In the case of `O=c1oc(-c2ccccc2F)nc2sc3c(c12)CCCC3` [II-15, 2-(2-Fluoro-phenyl)-5,6,7,8-tetrahydro-3-oxa-9-thia-1-aza-fluoren-4-one], the 50% inhibitory concentration (IC50) in data set [3] came to 70 nM. In addition, in data set [3] (1 h), the remaining activity at 1 µM came to 7% and the remaining activity at 5 µM is 2.4%.

Consider `COc1ccccc1-c1nc2sc3c(c2c(=O)o1)CCCC3` [II-16, 2-(2-Methoxy-phenyl)-5,6,7,8-tetrahydro-3-oxa-9-thia-1-aza-fluoren-4-one], for which the concentration for half-maximal inhibition (IC50) in data set [3] worked out at 70 nM. Also, in data set [3] (1 h), the remaining activity at 1 µM amounted to 2.7% and the remaining activity at 5 µM was found to be 0%.

On to `O=c1oc(-c2ccccc2)nc2sc3c(c12)CCCC3` [II-17, 2-Phenyl-5,6,7,8-tetrahydro-3-oxa-9-thia-1-aza-fluoren-4-one], for which the IC50 in data set [3] was determined as 700 nM. Besides, in data set [3] (1 h), the remaining activity at 1 µM was found to be 45% and the remaining activity at 5 µM came to 33%.

With `O=c1oc(-c2cccc3ccccc23)nc2sc3c(c12)CCCC3` [II-18, 2-Naphtalen-1-yl-5,6,7,8-tetrahydro-3-oxa-9-thia-1-aza-fluoren-4-one], the IC50 in data set [3] is 1000 nM. In data set [3] (1 h), the remaining activity at 1 µM came to 38% and the remaining activity at 5 µM is 41%.

For `O=c1oc(-c2cccs2)nc2sc3c(c12)CCCC3` [II-19, 2-Thiophen-2-yl-5,6,7,8-tetrahydro-3-oxa-9-thia-1-aza-fluoren-4one], the IC50 in data set [3] was determined as 1000 nM. Moreover, in data set [3] (1 h), the remaining activity at 1 µM came out at 52% and the remaining activity at 5 µM was 41%.

On to `COc1cccc(-c2nc3sc4c(c3c(=O)o2)CCCC4)c1` [II-20, 2-(3-Methoxy-phenyl)-5,6,7,8-tetrahydro-3-oxa-9-thia-1-aza-fluoren-4-one], for which the IC50 in data set [3] was determined as 2000 nM. For the same compound, in data set [3] (1 h), the remaining activity at 1 µM came to 52% and the remaining activity at 5 µM was 42%.

As to `O=c1oc(-c2ccncc2)nc2sc3c(c12)CCCCC3` [II-21, 2-Pyridin-4-yl-6,7,8,9-tetrahydro-5H-3-oxa-10-thia-1-aza-benzo[a]azulen-4-one], the 50% inhibitory concentration (IC50) in data set [3] turned out to be 2000 nM.

With `Cc1nc2sc3c(c2c(=O)o1)CCCCC3` [II-22, 2-Methyl-6,7,8,9-tetrahydro-5H-3-oxa-10-thia-1-aza-benzo[a]azulen-4-one], in data set [3], the concentration for half-maximal inhibition (IC50) was over 10000 nM. Besides, in data set [3] (1 h), the remaining activity at 1 µM was determined as 49% and the remaining activity at 5 µM amounted to 27%.

The record behind these values is patent publication US7872052B2, “Use of heterocyclic compounds as SCCE inhibitors” (Arexis AB, priority 2003, dated 2011).
